Assay results published in patent publication US20200085868A1, “Method For Treating Cancer” (China Medical University Hospital, priority 2018, published 2020).
“Also recorded” adds a separate entry of the source.

Tests used:
Format in all cases: cell-based
[1] = tested on: HLA-G expression of the human malignant brain tumor cell line DBTRG; experiment: HLA-G expression of tumor cells treated with chemotherapy drug, flow cytometry; settings: temozolomide 80 μg/mL, 48 hours, control 14.01%
Method: (§1) To investigate effect of the treatment of the chemotherapy drug on the tumor cells, the tumor cells are treated with the chemotherapy drug, and then detecting the HLA-G expression level of the tumor cells.
(§2) The tumor cells used are human breast cancer cell line MDA-MB-231, human malignant brain tumor cell line DBTRG-05MG (hereinafter referred to as DBTRG), human pancreatic cancer cell line AsPC1, and human ovarian cancer cell line SKOV3. The tumor cell lines used are all purchased from the American Type Culture Collection (ATCC). The human breast cancer cell line MDA-MB-231 is a triple-negative breast cancer cell line, that is, the hormone receptor (ER, PR) and HER-2 receptor thereof are negative, and the human breast cancer cell line MDA-MB-231 is cultured in RPMI culture medium containing 10% fetal bovine serum (FBS). The human malignant brain tumor cell line DBTRG is cultured in DMEM culture medium containing 10% FBS. […]
(§3) First, the human breast cancer cell line MDA-MB-231, the human malignant brain tumor cell line DBTRG, the human pancreatic cancer cell line AsPC1 and the human ovarian cancer cell line SKOV3 are seeded in a 6-well plate at a density of 2×10^5 cells/well. […] Then, the HLA-G expression level of the tumor cells are detected by immunofluorescence staining assay and flow cytometry.

[2] = tested on: HLA-G expression of the human pancreatic cancer cell line AsPC1; experiment: as above; settings: AsPC1, gemcitabine 20 μM, 48 hours; control 13.18%
Method: (§4) The human ovarian cancer cell line SKOV3 is cultured in McCoy's 5A culture medium containing 10% FBS.
(§5) First, the human breast cancer cell line MDA-MB-231, the human malignant brain tumor cell line DBTRG, the human pancreatic cancer cell line AsPC1 and the human ovarian cancer cell line SKOV3 are seeded in a 6-well plate at a density of 2×10^5 cells/well. The cells are subsequently incubated for 24 hours. […] In a control, the tumor cells are untreated.
(§6) Please refer to FIGS. 2A, 2B, 2C, 2D and 2E, which are analytical results of flow cytometry showing a HLA-G expression of tumor cells treated with a chemotherapy drug. FIG. 2A is analytical result of flow cytometry of the human breast cancer cell line MDA-MB-231. FIG. 2B is analytical result of flow cytometry of the human malignant brain tumor cell line DBTRG. FIG. 2C is analytical result of flow cytometry of the human pancreatic cancer cell line AsPC1. FIG. 2D is analytical result of flow cytometry of the human ovarian cancer cell line SKOV3. FIG. 2E is a statistical chart of FIGS. 2A, 2B, 2C and 2D.

[3] = tested on: human pancreatic cancer cell line AsPC1; experiment: Tumor cell death (cytotoxicity), Annexin V-FITC and PI staining, flow cytometry; settings: group 1: chemotherapy drug alone, gemcitabine 20 μM
Method: (§7) First, the human breast cancer cell line MDA-MB-231, the human malignant brain tumor cell line DBTRG, the human pancreatic cancer cell line AsPC1 and the human ovarian cancer cell line SKOV3 are seeded in a 12-well plate at a density of 1×10^5 cells/well. The cells are subsequently incubated for 24 hours. Each type of the tumor cells is divided into six groups. In a control, the tumor cells are untreated. In a group 1, the tumor cells are treated with the chemotherapy drug. In a group 2, the tumor cells are treated with the parental NK-92 cell line. In a group 3, the tumor cells are treated with the parental NK-92 cell line and the chemotherapy drug. In the groups 2 and 3, the number of the parental NK-92 cell line treated is 1×10^5 cells. In a group 4, the tumor cells are treated with the chimeric antigen receptor expressing cell of Example 1. […] The treated cells are stained with Annexin V-FITC and propidium iodide (PI), and the apoptosis and the death of the tumor cells are detected by the flow cytometry. The sum of the percentage of cells stained with Annexin V-FITC and/or PI (that is the percentage of cells in the first quadrant, the second quadrant, and the fourth quadrant of the bivariate flow cytometry scatter plot) are calculated to obtain the cytotoxicity. The results of the cytotoxicity are counted after the three independent trials in each group. […]

[4] = tested on: HLA-G expression level on the plasma membrane of the human ovarian cancer cell line SKOV3; experiment: HLA-G expression level of tumor cells treated with chemotherapy drug, immunofluorescence staining assay; settings: SKOV3, carboplatin 20 μM, 48 hours, vs untreated control
Method: as §1, §2, §3

[5] = tested on: HLA-G expression of the human ovarian cancer cell line SKOV3; experiment: HLA-G expression of tumor cells treated with chemotherapy drug, flow cytometry; settings: SKOV3, carboplatin 20 μM, 48 hours; control 14.69%
Method: as §4, §5, §6

[6] = tested on: human ovarian cancer cell line SKOV3; experiment: Tumor cell death (cytotoxicity), Annexin V-FITC and PI staining, flow cytometry; settings: group 1: chemotherapy drug alone, carboplatin 20 μM; control less than 10%
Method: as §7

[7] = tested on: HLA-G expression level on the plasma membrane of the human breast cancer cell line MDA-MB-231; experiment: HLA-G expression level of tumor cells treated with chemotherapy drug, immunofluorescence staining assay; settings: MDA-MB-231, doxorubicin 200 nM, 48 hours, vs untreated control
Method: as §1, §2, §3

[8] = tested on: HLA-G expression of the human breast cancer cell line MDA-MB-231; experiment: HLA-G expression of tumor cells treated with chemotherapy drug, flow cytometry; settings: MDA-MB-231, doxorubicin 200 nM, 48 hours; control 12.27%
Method: as §1, §2, §3

[9] = tested on: human breast cancer cell line MDA-MB-231; experiment: Tumor cell death (cytotoxicity), Annexin V-FITC and PI staining, flow cytometry; settings: group 1: chemotherapy drug alone, doxorubicin 200 nM; control about 10%
Method: (§8) The cells are subsequently incubated for 24 hours. […] In a control, the tumor cells are untreated.
as §8, §8

## Cn1nnc2c(C(N)=O)ncn2c1=O [temozolomide]
[1]
  mean fluorescence intensity (MFI) of HLA-G: 22.33%

## Nc1ccn([C@@H]2O[C@H](CO)[C@@H](O)C2(F)F)c(=O)n1 [gemcitabine]
[2]
  mean fluorescence intensity (MFI) of HLA-G: 41.44%
[3]
  death rate of AsPC1: increased, but there is no statistically significant difference compared to the control; also recorded: comparable to that of the control

## N.N.O=C([O-])C1(C(=O)[O-])CCC1.[Pt+2] [carboplatin]
[4]
  HLA-G expression level on the plasma membrane: increase
[5]
  mean fluorescence intensity (MFI) of HLA-G: 38.58%
[6]
  death rate of SKOV3: increased, but there is no statistically significant difference compared to the control; also recorded: comparable to that of the control

## COc1cccc2c1C(=O)c1c(O)c3c(c(O)c1C2=O)C[C@@](O)(C(=O)CO)C[C@@H]3O[C@H]1C[C@H](N)[C@H](O)[C@H](C)O1 [doxorubicin]
[7]
  HLA-G expression level on the plasma membrane: increase
[8]
  mean fluorescence intensity (MFI) of HLA-G: 64.45%
[9]
  death rate of MDA-MB-231: increased, but there is no statistically significant difference compared to the control
